Assay results: ChEMBL document CHEMBL1201862, “PubChem BioAssay data set” (2004)
Activity calls are given as the source filed them.

Assays:
Cytochrome P450 1A2 = biological target: T1, Cytochrome P450 1A2 (Homo sapiens, UniProt P05177);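 further: PubChem cytochrome P450 panel assay, CYP1A2 panel member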
T1 sequence (P05177 whole entry): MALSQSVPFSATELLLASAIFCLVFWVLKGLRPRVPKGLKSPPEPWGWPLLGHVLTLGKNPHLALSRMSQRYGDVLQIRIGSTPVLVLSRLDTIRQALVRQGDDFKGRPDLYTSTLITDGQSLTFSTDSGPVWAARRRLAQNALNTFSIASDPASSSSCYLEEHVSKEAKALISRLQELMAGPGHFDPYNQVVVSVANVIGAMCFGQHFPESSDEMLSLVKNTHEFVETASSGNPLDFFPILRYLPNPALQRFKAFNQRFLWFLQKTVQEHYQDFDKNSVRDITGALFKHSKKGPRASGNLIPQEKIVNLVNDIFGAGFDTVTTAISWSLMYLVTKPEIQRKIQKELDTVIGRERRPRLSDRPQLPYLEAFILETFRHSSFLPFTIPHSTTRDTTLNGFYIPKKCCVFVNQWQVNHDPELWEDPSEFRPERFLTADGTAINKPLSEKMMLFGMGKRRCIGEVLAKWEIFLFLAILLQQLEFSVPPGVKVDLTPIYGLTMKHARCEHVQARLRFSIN

Cytochrome P450 3A4 = Cytochrome P450 3A4 (Homo sapiens, UniProt P08684);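 further: CYP3A4 tested as one member of a cytochrome P450 panel screen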
Cytochrome P450 3A4, sequence (P08684 whole entry): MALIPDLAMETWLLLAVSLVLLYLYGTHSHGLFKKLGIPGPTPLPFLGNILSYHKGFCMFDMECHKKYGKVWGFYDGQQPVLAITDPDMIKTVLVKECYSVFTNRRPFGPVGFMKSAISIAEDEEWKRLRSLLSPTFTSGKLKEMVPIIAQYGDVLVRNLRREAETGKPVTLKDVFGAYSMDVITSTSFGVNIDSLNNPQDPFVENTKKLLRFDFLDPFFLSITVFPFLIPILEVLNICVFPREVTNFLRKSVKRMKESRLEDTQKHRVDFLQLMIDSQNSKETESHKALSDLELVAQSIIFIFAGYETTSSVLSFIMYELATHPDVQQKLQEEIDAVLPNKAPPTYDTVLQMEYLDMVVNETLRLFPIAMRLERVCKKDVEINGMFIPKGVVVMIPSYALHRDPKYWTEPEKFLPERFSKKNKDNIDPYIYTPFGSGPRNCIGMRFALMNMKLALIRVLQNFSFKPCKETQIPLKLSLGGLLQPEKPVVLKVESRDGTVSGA

[1] = biological target: Dual specificity tyrosine-phosphorylation-regulated kinase 1A (Rattus norvegicus, UniProt Q63470); assay type: biochemical, Homo sapiens; conditions: read-out: AC50
Vero [2] = test: cells; assay type: functional; conditions: Chlorocebus sabaeus
Vero [3] = test: cells; assay type: functional, cell-based; conditions: Chlorocebus sabaeus
Cytochrome P450 2C9 = Cytochrome P450 2C9 (Homo sapiens, UniProt P11712)
Cytochrome P450 2C9, sequence (P11712 whole entry): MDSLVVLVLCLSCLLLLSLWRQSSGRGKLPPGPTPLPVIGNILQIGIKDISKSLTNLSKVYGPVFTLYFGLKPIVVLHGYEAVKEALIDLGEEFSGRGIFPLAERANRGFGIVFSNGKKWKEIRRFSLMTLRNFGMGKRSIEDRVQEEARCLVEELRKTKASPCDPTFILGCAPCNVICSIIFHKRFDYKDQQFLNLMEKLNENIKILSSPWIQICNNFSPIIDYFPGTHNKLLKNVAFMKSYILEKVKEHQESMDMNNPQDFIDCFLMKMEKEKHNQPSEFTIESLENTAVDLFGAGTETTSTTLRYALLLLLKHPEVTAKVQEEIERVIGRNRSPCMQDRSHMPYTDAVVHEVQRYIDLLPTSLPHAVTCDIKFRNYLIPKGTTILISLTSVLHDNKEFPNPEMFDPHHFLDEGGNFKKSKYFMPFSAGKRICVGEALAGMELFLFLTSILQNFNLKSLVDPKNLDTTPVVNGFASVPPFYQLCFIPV

[4] = biological target: T2, Calpain-2 catalytic subunit (Sus scrofa, UniProt P43367); test: pig calpain II inhibitor potency, dose response, biochemical, fluorogenic peptide substrate (AID 1420); assay type: functional
T2 sequence (P43367 whole entry): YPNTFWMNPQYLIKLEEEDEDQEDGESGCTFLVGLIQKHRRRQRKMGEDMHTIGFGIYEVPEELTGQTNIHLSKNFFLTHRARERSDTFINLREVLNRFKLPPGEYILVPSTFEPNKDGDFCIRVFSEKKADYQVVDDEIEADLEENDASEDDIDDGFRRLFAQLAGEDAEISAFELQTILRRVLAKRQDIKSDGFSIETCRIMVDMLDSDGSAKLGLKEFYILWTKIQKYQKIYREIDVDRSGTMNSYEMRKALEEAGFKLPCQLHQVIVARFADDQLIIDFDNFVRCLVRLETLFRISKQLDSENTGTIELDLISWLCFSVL

HEK293 [5] = test: cells; conditions: Homo sapiens
HEK293 [6] = test: cells; conditions: Homo sapiens; remark: listed apart in the source
HEK293 [7] = test: NOD1 signaling inhibitors, primary screen, cell-based, luminescence, uHTS (AID 1578); assay type: functional; conditions: Homo sapiens
HEK293 [8] = test: cells; assay type: functional, cell-based; conditions: Homo sapiens
HEK293 [9] = test: cells; conditions: Homo sapiens; remark: listed apart in the source
Tumor necrosis factor = Tumor necrosis factor (Homo sapiens, UniProt P01375); test: TNFa-triggered NF-kB activation inhibitors, SAR follow-up, cell-based, revised (AID 2337); assay type: functional
Tumor necrosis factor, sequence (P01375 whole entry): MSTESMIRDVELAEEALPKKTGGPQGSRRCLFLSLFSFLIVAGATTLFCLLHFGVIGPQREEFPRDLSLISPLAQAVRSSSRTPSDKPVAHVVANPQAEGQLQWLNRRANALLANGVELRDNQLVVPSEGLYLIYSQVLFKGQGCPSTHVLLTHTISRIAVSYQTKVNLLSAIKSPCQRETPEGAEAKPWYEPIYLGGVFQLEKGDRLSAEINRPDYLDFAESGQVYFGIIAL

HEK293 [10] = test: cells; assay type: functional, cell-based; conditions: Homo sapiens; remark: listed apart in the source
[11] = biological target: T3, Nucleotide-binding oligomerization domain-containing protein 1 (Homo sapiens, UniProt Q9Y239); test: NOD1 signaling inhibitors, SAR follow-up, revised (AID 2333); assay type: functional
T3 sequence (Q9Y239 whole entry): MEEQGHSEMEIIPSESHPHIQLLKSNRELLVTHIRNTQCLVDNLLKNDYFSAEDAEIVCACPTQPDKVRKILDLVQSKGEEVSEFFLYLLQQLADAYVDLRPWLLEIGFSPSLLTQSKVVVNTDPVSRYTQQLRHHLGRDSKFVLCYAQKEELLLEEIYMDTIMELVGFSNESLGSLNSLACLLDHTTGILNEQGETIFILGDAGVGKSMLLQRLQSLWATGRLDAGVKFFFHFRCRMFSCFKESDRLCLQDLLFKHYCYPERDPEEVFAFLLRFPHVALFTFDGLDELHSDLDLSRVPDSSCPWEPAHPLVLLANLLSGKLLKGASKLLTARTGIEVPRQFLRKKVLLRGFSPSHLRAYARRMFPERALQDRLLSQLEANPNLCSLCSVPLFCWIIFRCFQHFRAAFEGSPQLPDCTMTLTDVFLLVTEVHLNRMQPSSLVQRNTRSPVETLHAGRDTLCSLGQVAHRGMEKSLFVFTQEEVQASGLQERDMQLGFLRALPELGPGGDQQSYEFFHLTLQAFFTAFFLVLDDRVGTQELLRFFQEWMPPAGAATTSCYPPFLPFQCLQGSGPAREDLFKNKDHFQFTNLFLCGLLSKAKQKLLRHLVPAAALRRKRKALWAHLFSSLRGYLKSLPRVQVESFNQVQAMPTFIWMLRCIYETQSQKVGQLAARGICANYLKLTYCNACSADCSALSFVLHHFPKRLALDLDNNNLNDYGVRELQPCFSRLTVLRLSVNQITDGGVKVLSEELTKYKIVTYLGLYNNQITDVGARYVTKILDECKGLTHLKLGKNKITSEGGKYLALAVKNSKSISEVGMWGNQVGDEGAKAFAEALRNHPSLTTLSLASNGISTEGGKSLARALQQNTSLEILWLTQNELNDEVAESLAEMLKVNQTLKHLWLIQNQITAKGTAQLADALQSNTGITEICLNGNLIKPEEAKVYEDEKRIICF

HEK293 [12] = test: NOD2 signaling inhibitors in MDP-stimulated cells, cell-based, uHTS, luminescence (AID 2001); assay type: functional; conditions: Homo sapiens
[13] = biological target: T4, Carboxy-terminal domain RNA polymerase II polypeptide A small phosphatase 1 (Homo sapiens, UniProt Q9GZU7); test: inhibitors of CTDSP1, concentration-response testing, biochemical assay, absorbance-based, actives from ultra-high-throughput screening (AID 540297); assay type: functional
T4 sequence (Q9GZU7 whole entry): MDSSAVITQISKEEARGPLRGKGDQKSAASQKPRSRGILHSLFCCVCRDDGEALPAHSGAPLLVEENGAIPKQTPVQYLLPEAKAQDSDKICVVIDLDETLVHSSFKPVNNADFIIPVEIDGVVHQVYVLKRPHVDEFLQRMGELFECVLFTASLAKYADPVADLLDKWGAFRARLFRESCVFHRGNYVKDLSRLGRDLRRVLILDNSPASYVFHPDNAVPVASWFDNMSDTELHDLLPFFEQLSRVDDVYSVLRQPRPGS

[14] = biological target: T5, Rac GTPase-activating protein 1 (Homo sapiens, UniProt Q9H0H5); test: MgcRacGAP GTPase-activating activity inhibitors, confirmation, biochemical, ADP Hunter fluorescence, primary and confirmatory (AID 624330); assay type: functional
T5 sequence (Q9H0H5 whole entry): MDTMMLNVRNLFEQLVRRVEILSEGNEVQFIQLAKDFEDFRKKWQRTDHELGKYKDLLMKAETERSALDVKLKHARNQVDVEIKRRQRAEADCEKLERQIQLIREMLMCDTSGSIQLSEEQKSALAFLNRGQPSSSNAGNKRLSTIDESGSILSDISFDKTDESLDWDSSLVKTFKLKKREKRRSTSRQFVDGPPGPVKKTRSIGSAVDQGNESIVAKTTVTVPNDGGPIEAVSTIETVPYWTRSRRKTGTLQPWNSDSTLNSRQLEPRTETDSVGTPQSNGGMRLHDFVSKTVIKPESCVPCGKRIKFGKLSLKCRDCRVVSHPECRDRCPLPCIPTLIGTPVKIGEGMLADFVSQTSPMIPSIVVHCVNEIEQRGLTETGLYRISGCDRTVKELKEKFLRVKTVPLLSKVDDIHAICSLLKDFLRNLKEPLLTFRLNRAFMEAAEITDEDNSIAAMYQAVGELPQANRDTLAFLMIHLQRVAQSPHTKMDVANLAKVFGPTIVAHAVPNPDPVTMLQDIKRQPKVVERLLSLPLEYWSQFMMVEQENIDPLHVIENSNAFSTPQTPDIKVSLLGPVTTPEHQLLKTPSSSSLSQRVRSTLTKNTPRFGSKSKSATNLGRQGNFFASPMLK

Which results are given for `Cc1c(-c2ccc(F)cc2)nc(N)c(C#N)c1-c1cccs1`?
AC50 (Cytochrome P450 1A2): 1.78 µM (inconclusive); AC50 (Cytochrome P450 3A4): inconclusive

How did the AC50 [1] turn out when `O=C(Nc1cccc(-c2nc3ncccc3o2)c1)c1cc2ccccc2o1` was run?
Its AC50 is 0.942 µM (active).

For `Cc1cccnc1NC(=O)NC(=O)c1ccc(C(C)(C)C)s1`, which CC50 (Vero [2]) is on record?
Its CC50 is > 25 µM (active).

What about the IC50 (Vero [3]) of the same molecule?
The IC50 was 22.4 µM (active).

For `O=C(c1cccc(F)c1)N1CCC2(CC1)CCN(c1ccncc1)CC2`, which AC50 (Cytochrome P450 2C9) is on record?
The AC50 was 25.1 µM (inconclusive).

And the AC50 (Cytochrome P450 3A4)?
The AC50 was “inconclusive”.

For `O=C(NC1CCCC1)C(c1ccsc1)N(Cc1ccccc1)C(=O)Cc1cccs1` (centres undefined), which IC50 [4] is on record?
The IC50 was > 50 µM (not active).

What about the EC50 (HEK293 [5]) of the same molecule?
The EC50 was > 59.7 µM (inactive).

And the EC50 (HEK293 [6])?
Its EC50 is > 59.7 µM (inactive).

What does the source list for `COc1ccc(C(O)P(=O)(OC(C)C)OC(C)C)cc1OC` (centres undefined)?
AC50 (Cytochrome P450 1A2): 11.2 µM (inconclusive); AC50 (Cytochrome P450 3A4): inconclusive

With `COc1ccc(N2CCN(S(=O)(=O)c3ccc4c(c3)NC(=O)C(C)S4)CC2)cc1` (centres undefined) as the molecule, how does the EC50 (HEK293 [7]) read?
The EC50 was 4.87 µM (active).

And the IC50 (HEK293 [8])?
Its IC50 is 4.28 µM (active).

And the IC50 (HEK293 [9])?
Its IC50 is > 20 µM (inactive).

What about the IC50 (Tumor necrosis factor) of the same molecule?
The IC50 was 10.2 µM (active).

What about the IC50 (HEK293 [10]) of the same molecule?
The IC50 was 12.6 µM (active).

And the IC50 [11]?
Its IC50 is 4.54 µM (active).

What about the IC50 (HEK293 [12]) of the same molecule?
Its IC50 is 7.5 µM (active).

With `Cn1c2ccccc2c(=O)c2ccc(C#CC3(N)CCCCC3)cc21` as the molecule, how does the AC50 [1] read?
The AC50 was 23.7 µM (active).

With `N#CCC(=O)Nc1ccc(C(=O)OCC(=O)Nc2ccc3ccccc3c2)cc1` as the molecule, how does the IC50 [13] read?
The IC50 was 68.5 µM (active).

For `O=C1OC(c2ccc3c(c2)OCO3)=N/C1=C\c1ccc(C(=O)O)cc1`, which IC50 [13] is on record?
Its IC50 is 1.38 µM (active).

With `CC(C)OP(=O)(c1ccc(N(C)C)cc1)C(Nc1ccccc1)c1ccccc1` (centres undefined) as the molecule, how does the EC50 (HEK293 [5]) read?
The EC50 was > 59.6 µM (inactive).

And the EC50 (HEK293 [6])?
Its EC50 is > 59.6 µM (inactive).

Which results are given for `COc1nc(N)nc(NC(=O)c2cccs2)c1N=O`?
IC50 [14]: 116 µM (active); EC50 (HEK293 [5]): > 59.6 µM (inactive); EC50 (HEK293 [6]): > 59.6 µM (inactive)

Which results are given for `CN(C)N=Nc1nc2c(c(=O)n(C)c(=O)n2C)n1CC1CO1` (centres undefined)?
CC50 (Vero [2]): > 25 µM (active); IC50 (Vero [3]): 21.9 µM (active)

For `COc1ccc(OC(F)(F)F)cc1CC1(C)C(=O)Nc2ccc(S(=O)(=O)NC3CCCCC3)cc21` (centres undefined), which EC50 (HEK293 [5]) is on record?
The EC50 was > 59.6 µM (inactive).

What about the EC50 (HEK293 [6]) of the same molecule?
Its EC50 is > 59.6 µM (inactive).

Which CC50 (Vero [2]) does the source give for `O=C(/C=C/c1ccccc1O)c1ccc(Cl)cc1` here?
The CC50 was 19.6 µM (active).

With `COc1ccc(/C=N/Nc2ncc(Br)cn2)c(OC)c1` as the molecule, how does the IC50 [13] read?
Its IC50 is 19.6 µM (active).

How did the AC50 [1] turn out when `COc1ccc(-c2coc3cc(O)ccc3c2=O)cc1O` [CALYCOSIN] was run?
The AC50 was 16.1 µM (active).
